Legend:
[1] = test system: Rat pulmonary artery endothelial cells (RPAECs); experiment: H2O2 oxidative stress to endothelial cell monolayers, DCFDA fluorescence (confocal imaging); type: cell-based
Protocol: Rat pulmonary artery endothelial cells (RPAECs) were grown to confluence on optical grade culture dishes using standard technique. Cells were grown in Dulbecco's Modified Eagles Medium (high glucose) containing […], 0.8 M NaOH 10% serum (calf serum). Cells were incubated at 37° C. in 5% CO2, 95% relative humidity.
An oxidative stress indicator, dichlorofluorescein diacetate (DCFDA), was used to indicate the extent of injury to cells. DCFDA is a colorless substance that permeates through the cell membrane. Fresh DCFDA (5 uM) was prepared by solubilizing 2.4 mg DCFDA in 300 ul DMSO, then diluting the solution in […] Phosphate buffered saline (PBS), pH 7.4. […] Upon excitation by contact with free radicals, the dye DCFDA becomes fluorescent and the intensity of fluorescence is directly proportional to the degree of oxidative stress suffered by the cells. […]
Oxidative stress was initiated by the addition of the buffer containing 10 mM H2O2 in PBS to the cell monolayers. Oxidative stress to cells was measured by sequential imaging with a confocal laser microscope obtained at baseline and every 10 seconds for 120 seconds. The excitation filter was wet at 488 nm and the images were read at 515 nm. […]
Relative fluorescence of cell monolayers exposed to perflubron (open circles) and standard buffer (closed circles) are shown in FIG. 1. […] Data are expressed as mean+standard error of the mean. […]

[2] = AAPH peroxyl-radical oxidation of linoleic acid/SDS micelles, malondialdehyde formation; conditions: 2, 4, 20 and 50 mM AAPH; 5 ml emulsion plus 5 ml perflubron, room temperature (FIGS. 4A-D)
Protocol: This embodiment illustrates the effect of perfluorocarbon on fatty acid oxidation in a non-biological system (fatty acid micelles). Linoleic acid micelles were prepared as follows: Linoleic acid (3 mM) was emulsified into phosphate buffered saline (PBS) using the detergent sodium dodecyl sulfate (SDS, 250 μM). Linoleic acid/SDS micelles in PBS were formed by agitation and sonication of the resulting emulsion. The emulsion (5 ml) was exposed to perfluorocarbon by the addition of perflubron (PFOB, 5 ml, available commercially) to the system. Emulsions not exposed to perflubron served as controls. The emulsion/PFOB system (PFOB exposed micelles) and the non-exposed micelles (control) were agitated (xyz axial shaker) at room temperature. […] The degree of oxidative injury to the linoleic acid/SDS micelles was assessed by measuring malondialdehyde concentrations in aliquots taken from the emulsion phase at different time intervals. […] Malondialdehyde was measured using the method of Esterbauer and Cheeseman (Meth. Enzymol. 1990; 186:407-421). […] Absorbance changes were measured using a spectrophotometer (Beckman DU 650, Beckman Instruments) at 586 nm, against standard curves of 1,1,3,3-tetramethoxypropane at the end of the incubation period. […]

## FC(F)(F)C(F)(F)C(F)(F)C(F)(F)C(F)(F)C(F)(F)C(F)(F)C(F)(F)Br [PFOB, perfluorooctyl bromide]
[1]; 10 mM H2O2 in PBS, imaging every 10 seconds for 120 seconds, perflubron removed by aspiration or evaporation (FIGS. 1, 2 and 3)
  oxidative injury to cell monolayers: attenuates oxidative injury to cell monolayers
[1]; after 120 seconds of oxidative stress with 10 mM H2O2, cells pre-exposed 1 minute to 1 ml PFOB, then removed (C120, FIG. 2 and 3)
  DCFDA fluorescence (indicator of free radicals) in cell cultures: lack of fluorescence
[2]
  oxidative damage to fatty acid micelles (malondialdehyde concentration): attenuates oxidative damage to fatty acid micelles

Source: patent US6894079B1, “Method for reducing free-radical induced injury” (priority 1998, dated 2005)
